Test results reported in publication PMC5372168, “Serine protease SP105 activates prophenoloxidase in Asian corn borer melanization, and is regulated by serpin-3” (Scientific Reports, 2017).

Molecular target: T1, Asian corn borer prophenoloxidase-2 (OfPPO2; PO2) (Ostrinia furnacalis, UniProt Q2I355)
T1 construct: coding region of mature PPO2 in pET28a, E. coli BL21(DE3), purified
T1 sequence (Q2I355 1-692): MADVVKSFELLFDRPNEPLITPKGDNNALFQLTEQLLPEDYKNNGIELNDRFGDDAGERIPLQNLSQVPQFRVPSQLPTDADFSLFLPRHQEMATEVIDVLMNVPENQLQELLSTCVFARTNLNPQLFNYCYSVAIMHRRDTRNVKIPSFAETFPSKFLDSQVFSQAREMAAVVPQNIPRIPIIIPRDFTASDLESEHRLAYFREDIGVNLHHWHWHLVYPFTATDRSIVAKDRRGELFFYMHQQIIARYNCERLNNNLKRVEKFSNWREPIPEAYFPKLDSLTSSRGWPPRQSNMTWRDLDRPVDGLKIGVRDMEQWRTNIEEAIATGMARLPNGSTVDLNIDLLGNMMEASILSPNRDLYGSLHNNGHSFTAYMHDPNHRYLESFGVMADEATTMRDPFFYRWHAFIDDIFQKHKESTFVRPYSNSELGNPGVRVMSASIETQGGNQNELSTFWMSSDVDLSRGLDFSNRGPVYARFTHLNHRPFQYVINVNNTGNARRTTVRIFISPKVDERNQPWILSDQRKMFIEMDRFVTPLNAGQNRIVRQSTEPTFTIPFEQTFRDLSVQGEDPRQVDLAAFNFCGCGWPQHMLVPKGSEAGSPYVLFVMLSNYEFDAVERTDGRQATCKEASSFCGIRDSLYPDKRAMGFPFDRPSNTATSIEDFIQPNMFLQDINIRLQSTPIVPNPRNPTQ
Experiment: phenoloxidase assay, A490
Type: biochemical
Details: PPO2 activated by Factor Xa-activated SP105Xa, 37 °C 30 min

SMILES: NCCc1ccc(O)c(O)c1 [dopamine]
- phenoloxidase assay, A490: PO activity in the reaction mixtures was measured using dopamine as substrate
